Laboratory results taken from patent US11957759B1, “Rapidly accelerated fibrosarcoma (RAF) degrading compounds and associated methods of use” (Arvinas Operations, Inc., priority 2022, dated 2024).

What was measured:
B-RAF V600E = biological target: T1, B-RAF V600E (Homo sapiens, UniProt P15056, V600E); assay: Target protein degradation, assay C: T-Rex 293 cells, HA-BRAF_V600E, 384 well format; format: cell-based; conditions: T-Rex 293 HA-BRAF_V600E cells, 24 hours, Examples 83-269; for DC50: Assay C; for Dmax: T-REx-293, Assay C
T1 construct: expressed in transfected cells; host or cells: T-Rex 293 cells (Invitrogen #R71007)
T1 sequence (P15056 whole entry V600E): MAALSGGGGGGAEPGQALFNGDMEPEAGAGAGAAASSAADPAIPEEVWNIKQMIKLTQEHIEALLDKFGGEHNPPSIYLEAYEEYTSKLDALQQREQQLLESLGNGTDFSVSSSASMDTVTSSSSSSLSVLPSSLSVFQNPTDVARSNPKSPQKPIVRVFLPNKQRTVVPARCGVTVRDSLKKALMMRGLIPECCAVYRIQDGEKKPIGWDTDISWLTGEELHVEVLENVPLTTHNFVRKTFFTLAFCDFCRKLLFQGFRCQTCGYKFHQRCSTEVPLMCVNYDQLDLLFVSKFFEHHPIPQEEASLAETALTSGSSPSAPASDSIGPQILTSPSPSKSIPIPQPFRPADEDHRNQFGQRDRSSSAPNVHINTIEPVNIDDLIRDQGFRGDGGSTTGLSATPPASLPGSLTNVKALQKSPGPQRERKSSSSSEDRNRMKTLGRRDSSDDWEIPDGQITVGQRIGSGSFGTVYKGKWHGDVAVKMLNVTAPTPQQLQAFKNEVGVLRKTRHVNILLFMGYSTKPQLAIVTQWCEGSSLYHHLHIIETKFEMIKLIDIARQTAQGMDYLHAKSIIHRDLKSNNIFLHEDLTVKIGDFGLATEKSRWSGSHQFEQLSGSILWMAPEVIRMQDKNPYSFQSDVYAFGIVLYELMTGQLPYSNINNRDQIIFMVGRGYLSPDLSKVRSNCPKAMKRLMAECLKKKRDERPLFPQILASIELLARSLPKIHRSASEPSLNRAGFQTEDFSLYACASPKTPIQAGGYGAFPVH
Outline: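 After 24 h exposure to an 11-point 1:3 series (300 nM–5 pM, 0.5% DMSO), fixed T-Rex 293 cells carrying HA-BRAF V600E (induced with 1 ng/mL doxycycline) were stained anti-HA and imaged. DC50 and Dmax were derived from BRAF intensity relative to control, and cytotoxicity from nuclear counts.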

B-RAF G466V = biological target: T2, B-RAF G466V (Homo sapiens, UniProt P15056, G466V); assay: Target protein degradation, assay D: T-Rex 293 cells, HA-BRAF_G466V, 384 well format; format: cell-based; conditions: T-Rex 293 HA-BRAF_G466V cells, 24 hours, Examples 83-269; for Dmax: T-REx-293, Assay D
T2 construct: expressed in transfected cells; host or cells: T-Rex 293 cells (Invitrogen #R71007)
T2 sequence (P15056 whole entry G466V): as the sequence (P15056 whole entry V600E) above, with G466V, E600V counted along it
Outline: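 Degradation measured by high-content imaging of anti-HA immunofluorescence in fixed T-Rex 293 cells carrying inducible HA-BRAF G466V (1 ng/mL doxycycline), after 24 h PROTAC exposure at 37 °C over 300 nM–5 pM (1:3, 11 points, 0.5% DMSO). Outputs DC50 and Dmax as % of control; nuclei counts against DMSO wells gauge toxicity.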

SMILES	DC50 (B-RAF V600E)	Dmax (B-RAF V600E)	DC50 (B-RAF G466V; Assay D)	Dmax (B-RAF G466V)	B-RAF G466V DMax (%) (B-RAF G466V; Assay D)
COc1cc(N2CCN(c3ccc(-n4cnc5ccc(Oc6c(F)ccc(NS(=O)(=O)N7CC[C@@H](F)C7)c6C#N)cc5c4=O)cn3)CC2)cc2c1C(=O)N(C1CCC(=O)NC1=O)C2=O (stereo partly drawn) [Example 139, (3R)-N-(2-cyano-3-{[3-(6-{4-[2-(2,6-dioxopiperidin-3-yl)-7-methoxy-1,3-dioxo-2,3-dihydro-1H-isoindol-5-yl]piperazin-1-yl}pyridin-3-yl)-4-oxo-3,4-dihydroquinazolin-6-yl]oxy}-4-fluorophenyl)-3-fluoropyrrolidine-1-sulfonamide]	5 to 50 nM	≤ 35%	> 30 nM		
N#Cc1c(NS(=O)(=O)N2CC[C@@H](F)C2)ccc(F)c1Oc1ccc2ncn(-c3ccc(N4CCN(C(=O)C5CCN(c6ccc7c(c6)CN(C6CCC(=O)NC6=O)C7=O)CC5)CC4)cc3)c(=O)c2c1 (single isomer, unassigned) [Example 242, (3R)-N-{2-cyano-3-[(3-(4-[4-(1-{2-[(3R*)-2,6-dioxopiperidin-3-yl]-1-oxo-2,3-dihydro-1H-isoindol-5-yl}piperidine-4-carbonyl)piperazin-1-yl]phenyl}-4-oxo-3,4-dihydroquinazolin-6-yl)oxy]-4-fluorophenyl}-3-fluoropyrrolidine-1-sulfonamide]	> 500 nM		10 to 30 nM		C (C ≤ 35)
N#Cc1c(NS(=O)(=O)N2CC[C@@H](F)C2)ccc(F)c1Oc1ccc2ncn(-c3ccc(N4CCC(CN5CC(c6ccc([C@@H]7CCC(=O)NC7=O)cc6F)C5)CC4)cc3)c(=O)c2c1 [Example 184, (3R)-N-(2-cyano-3-{[3-(4-{4-[(3-{4-[(3S)-2,6-dioxopiperidin-3-yl]-2-fluorophenyl}azetidin-1-yl)methyl]piperidin-1-yl}phenyl)-4-oxo-3,4-dihydroquinazolin-6-yl]oxy}-4-fluorophenyl)-3-fluoropyrrolidine-1-sulfonamide]	50 to 500 nM	≤ 35%	> 30 nM		
COc1cc(N2CCN(CC3CCN(c4ccc(-n5cnc6ccc(Oc7c(F)ccc(NS(=O)(=O)N8CC[C@@H](F)C8)c7C#N)cc6c5=O)cn4)CC3)CC2)cc2c1C(=O)N(C1CCC(=O)NC1=O)C2=O (stereo partly drawn) [Example 138, (3R)-N-{2-cyano-3-[(3-{6-[4-({4-[2-(2,6-dioxopiperidin-3-yl)-7-methoxy-1,3-dioxo-2,3-dihydro-1H-isoindol-5-yl]piperazin-1-yl}methyl)piperidin-1-yl]pyridin-3-yl}-4-oxo-3,4-dihydroquinazolin-6-yl)oxy]-4-fluorophenyl}-3-fluoropyrrolidine-1-sulfonamide]	50 to 500 nM	≤ 35%	1 to 10 nM	≤ 35%	
COc1ccc(N2CCC(CN3CCN(c4ccc(-n5cnc6ccc(Oc7c(F)ccc(NS(=O)(=O)N8CC[C@@H](F)C8)c7C#N)cc6c5=O)cn4)CC3)CC2)cc1C(=O)NC1CCC(=O)NC1=O (stereo partly drawn) [Example 141, 5-(4-{[4-(5-{6-[2-cyano-6-fluoro-3-({[(3R)-3-fluoropyrrolidin-1-yl]sulfonyl}amino)phenoxy]-4-oxo-3,4-dihydroquinazolin-3-yl}pyridin-2-yl)piperazin-1-yl]methyl}piperidin-1-yl)-N-(2,6-dioxopiperidin-3-yl)-2-methoxybenzamide]	50 to 500 nM	≤ 35%	1 to 10 nM	≤ 35%	

Further lines, results first:

DC50 (B-RAF V600E)	Dmax (B-RAF V600E)	DC50 (B-RAF G466V; Assay D)	Dmax (B-RAF G466V)	B-RAF G466V DMax (%) (B-RAF G466V; Assay D)	SMILES
50 to 500 nM	≤ 35%	10 to 30 nM	35 to 70%		CN(c1ccc(-n2cnc3ccc(Oc4c(F)ccc(NS(=O)(=O)N5CC[C@@H](F)C5)c4C#N)cc3c2=O)cc1)[C@H]1CC[C@@H](N2CCN(c3ccc4c(c3)CN([C@H]3CCC(=O)NC3=O)C4=O)CC2)CC1 [Example 224, (3R)-N-(2-cyano-4-fluoro-3-{[3-(4-{methyl[(1r,4r)-4-(4-{2-[(3S)-2,6-dioxopiperidin-3-yl]-1-oxo-2,3-dihydro-1H-isoindol-5-yl}piperazin-1-yl)cyclohexyl]amino}phenyl)-4-oxo-3,4-dihydroquinazolin-6-yl]oxy}phenyl)-3-fluoropyrrolidine-1-sulfonamide]
5 to 50 nM	35 to 70%	1 to 10 nM	≤ 35%		N#Cc1c(NS(=O)(=O)N2CC[C@@H](F)C2)ccc(F)c1Oc1ccc2ncn(-c3ccc(C4CCN(CC5CCN(c6ccc7c(c6)CN([C@H]6CCC(=O)NC6=O)C7=O)CC5)C4)cc3)c(=O)c2c1 (stereo partly drawn) [Example 208, (3R)-N-(2-cyano-3-{[3-(4-{1-[(1-{2-[(3S)-2,6-dioxopiperidin-3-yl]-1-oxo-2,3-dihydro-1H-isoindol-5-yl}piperidin-4-yl)methyl]pyrrolidin-3-yl}phenyl)-4-oxo-3,4-dihydroquinazolin-6-yl]oxy}-4-fluorophenyl)-3-fluoropyrrolidine-1-sulfonamide]
50 to 500 nM	35 to 70%	> 30 nM			N#Cc1c(NS(=O)(=O)N2CC[C@@H](F)C2)ccc(F)c1Oc1ccc2ncn(-c3cnc(N4CCC(CN5CC6(C5)CN(c5cccc7c5C(=O)N(C5CCC(=O)NC5=O)C7=O)C6)CC4)nc3)c(=O)c2c1 (stereo partly drawn) [Example 153, (3R)-N-{2-cyano-3-[(3-{2-[4-({6-[2-(2,6-dioxopiperidin-3-yl)-1,3-dioxo-2,3-dihydro-1H-isoindol-4-yl]-2,6-diazaspiro[3.3]heptan-2-yl}methyl)piperidin-1-yl]pyrimidin-5-yl}-4-oxo-3,4-dihydroquinazolin-6-yl)oxy]-4-fluorophenyl}-3-fluoropyrrolidine-1-sulfonamide]
50 to 500 nM	≥ 70%	1 to 10 nM	35 to 70%		Cn1c(=O)n(C2CCC(=O)NC2=O)c2cccc(N3CCN(CCN4CCN(c5ccc(-n6cnc7ccc(Oc8c(F)ccc(NS(=O)(=O)N9CC[C@@H](F)C9)c8C#N)cc7c6=O)cc5)CC4)CC3)c21 (stereo partly drawn) [Example 245, (3R)-N-{2-cyano-3-[(3-{4-[4-(2-{4-[1-(2,6-dioxopiperidin-3-yl)-3-methyl-2-oxo-2,3-dihydro-1H-1,3-benzodiazol-4-yl]piperazin-1-yl}ethyl)piperazin-1-yl]phenyl}-4-oxo-3,4-dihydroquinazolin-6-yl)oxy]-4-fluorophenyl}-3-fluoropyrrolidine-1-sulfonamide]
50 to 500 nM	35 to 70%	1 to 10 nM	35 to 70%		CN(c1ccc2c(c1)CN([C@@H]1CCC(=O)NC1=O)C2=O)[C@H]1CC[C@H](N2CCN(c3ccc(-n4cnc5ccc(Oc6c(F)ccc(NS(=O)(=O)N7CC[C@@H](F)C7)c6C#N)cc5c4=O)cc3)CC2)CC1 [Example 229, (3R)-N-(2-cyano-4-fluoro-3-{[4-oxo-3-(4-{4-[(1r,4r)-4-({2-[(3R)-2,6-dioxopiperidin-3-yl]-1-oxo-2,3-dihydro-1H-isoindol-5-yl}(methyl)amino)cyclohexyl]piperazin-1-yl}phenyl)-3,4-dihydroquinazolin-6-yl]oxy}phenyl)-3-fluoropyrrolidine-1-sulfonamide]
5 to 50 nM	35 to 70%	1 to 10 nM	≤ 35%		N#Cc1c(NS(=O)(=O)N2CC[C@@H](F)C2)ccc(F)c1Oc1ccc2ncn(-c3ccc(N4CCN(CC5CCN(c6ccc(C7CCC(=O)NC7=O)cn6)CC5)CC4)cc3)c(=O)c2c1 (stereo partly drawn) [Example 91, (3R)-N-{2-cyano-3-[(3-(4-[4-({1-[5-(2,6-dioxopiperidin-3-yl)pyridin-2-yl]piperidin-4-yl}methyl)piperazin-1-yl]phenyl}-4-oxo-3,4-dihydroquinazolin-6-yl)oxy]-4-fluorophenyl}-3-fluoropyrrolidine-1-sulfonamide]
